US8309721B2, “HSP90 inhibitory carbazole derivatives, compositions containing same and use thereof” (Sanofi, priority 2008, dated 2012)
Where a name gives a salt, the structure may show the parent alone. Read-outs that look alike come from different tables or passages of the source.

Assays:
[1] = target: Hsp82 (Saccharomyces cerevisiae, UniProt P02829); experiment: Hsp82/ATPase test (malachite green or PK/LDH coupled method); type: biochemical
Method: The biochemical activity of the compounds can in particular be evaluated by means of the “Hsp82/ATPase” test described below: The inorganic phosphate released during the hydrolysis of ATP by the ATPase activity of Hsp82 is quantified by the malachite green method. In the presence of this reagent, formation of the inorganic phosphate-molybdate-malachite green complex, which absorbs at a wavelength of 620 nm, occurs. The products to be evaluated are incubated in a reaction volume of 30 μl, in the presence of 1 μM Hsp82 and of 250 μM of substrate (ATP) in a buffer composed of 50 mM Hepes-NaOH (pH 7.5), 1 mM DTT, 5 mM MgCl2 and 50 mM KCl at 37° C. for 60 min. In parallel, an inorganic phosphate range of between 1 and 40 μM is made up in the same buffer. […] After incubation at ambient temperature for 20 min, the absorbance of the various wells is measured using a microplate reader at 620 nm. The inorganic phosphate concentration of each sample is then calculated from the standard curve. The ATPase activity of Hsp82 is expressed as concentration of inorganic phosphate produced in 60 minutes. The effect of the various products tested is expressed as percentage inhibition of the ATPase activity. The formation of ADP due to the ATPase activity of Hsp82 was used to develop another method for evaluating the enzyme activity of this enzyme by application of an enzymatic coupling system involving pyruvate kinase (PK) and lactate dehydrogenase (LDH). In this kinetic-type spectrophotometric method, PK catalyses the formation of ATP and of pyruvate from phosphoenol pyruvate (PEP) and the ADP produced by Hsp82. The pyruvate formed, which is a substrate for LDH, is subsequently converted to lactate in the presence of NADH. In this case, the decrease in the NADH concentration, measured through the decrease in absorbance at the wavelength of 340 nm, is proportional to the concentration of ADP produced by Hsp82. The products tested are incubated in a reaction volume of 100 μl of buffer composed of 100 mM Hepes-NaOH (pH 7.5), 5 mM MgCl2, 1 mM DTT, 150 mM KCl, 0.3 mM NADH, 2.5 mM PEP and 250 μM ATP. This mixture is preincubated at 37° C. for 30 minutes before the addition of 3.77 units of LDH and 3.77 units of PK. The reaction is initiated by addition of the product to be evaluated, in varying concentrations, and of Hsp82, at the concentration of 1 μM. The enzymatic activity of Hsp82 is then measured continuously, in a microplate reader, at 37° C., at the wavelength of 340 nm. The initial rate of the reaction is obtained by measuring the slope of the tangent to the origin of the curve recorded. The enzymatic activity is expressed in μM of ADP formed per minute. The effect of the various products tested is expressed as percentage inhibition of the ATPase activity according to the codification below: […]

[2] = tested on: Her2 receptor expression at the surface of SKBr3 cells; experiment: phenotypic SKBr3/HER2 cell test (Her2 surface expression by flow cytometry); type: cell-based; details: Homo sapiens, SK-BR-3, 24 h incubation, inhibition of Her2 expression
Method: The cellular activity of the compounds can in particular be evaluated by means of the phenotypic “SKBr3/HER2” cell test described below:
The SKBr3 […] adenocarcinoma cells, overexpressing the Her2 tyrosine kinase receptor, originate from the ATCC (HTB-30) and are cultured in McCoy's 5A medium supplemented with 10% FBS and 1% L-glutamine.
The cells are seeded in 12-well plates at a proportion of 125 000 cells per well in 1 ml of complete medium. The following day, the products are added at varying concentrations. After incubation for 24 h, the cells are trypsinized, washed with PBS and incubated with 100 ng of anti-Her2 antibody coupled to PE (Phycoerythrin) (BD 340552) for 30 minutes at 4° C. in the dark. The fluorescence due to the expression of the Her2 receptor at the surface of the cells is then read using a FACS Calibur flow cytometer (Becton-Dickinson). The percentage inhibition of Her2 expression as a function of the concentrations of product tested is fitted by the nonlinear regression technique (XLfit, equation 205) in order to measure an IC50 for each product.

[3] = 1 μM Hsp82, 250 μM ATP, 37° C., read-out: Hsp82 ATPase IC50

Sequence of Hsp82 (P02829 whole entry): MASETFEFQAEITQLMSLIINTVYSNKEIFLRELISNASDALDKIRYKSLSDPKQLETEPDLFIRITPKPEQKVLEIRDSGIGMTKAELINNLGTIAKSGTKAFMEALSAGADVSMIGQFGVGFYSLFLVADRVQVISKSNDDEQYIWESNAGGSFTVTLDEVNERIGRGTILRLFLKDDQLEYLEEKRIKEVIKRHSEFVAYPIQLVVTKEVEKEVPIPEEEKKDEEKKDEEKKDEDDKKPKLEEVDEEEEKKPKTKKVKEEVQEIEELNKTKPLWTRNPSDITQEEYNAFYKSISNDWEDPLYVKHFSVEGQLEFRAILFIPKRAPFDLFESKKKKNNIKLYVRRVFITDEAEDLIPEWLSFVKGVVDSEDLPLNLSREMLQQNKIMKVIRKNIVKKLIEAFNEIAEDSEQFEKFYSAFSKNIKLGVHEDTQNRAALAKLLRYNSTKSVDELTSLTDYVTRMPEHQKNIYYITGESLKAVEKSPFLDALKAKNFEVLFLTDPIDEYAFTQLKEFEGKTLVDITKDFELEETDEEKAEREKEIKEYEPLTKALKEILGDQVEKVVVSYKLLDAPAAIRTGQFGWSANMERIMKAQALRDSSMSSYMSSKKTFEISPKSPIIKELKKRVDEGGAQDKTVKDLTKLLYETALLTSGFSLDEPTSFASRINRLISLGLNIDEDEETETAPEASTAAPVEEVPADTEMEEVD

Compound | IC50 [1, 3] [nM] | IC50 [2] [nM] | IC50 [1] [nM]
CC(C)(O)CCNc1cc(-n2c3ccccc3c3c(-c4nc5ccc(F)cc5[nH]4)cccc32)ccc1C(N)=O [Example 61, 4-[4-(6-fluoro-1H-benzimidazol-2-yl)-9H-carbazol-9-yl]-2-(3-hydroxy-3-methylbutylamino)benzamide] | 1000 to 10000 | < 1000 | 
CN1C2CCC1CC(Nc1cc(-n3c4ccccc4c4c(-c5cnc6ccccc6c5)cccc43)ccc1C(N)=O)C2 (centres unmarked) [Example 138, 2-(8-methyl-8-azabicyclo[3.2.1]oct-3-yl)amino-4-[4-(quinolin-3-yl)-9H-carbazol-9-yl]benzamide] |  | < 1000 | < 1000
C[C@H](N)C(=O)O[C@H]1CC[C@H](Nc2cc(-n3c4ccccc4c4c(-c5nc6ccc(F)cc6[nH]5)cccc43)ccc2C(N)=O)CC1 [Example 26, trifluoroacetate of the 4-trans-{2-carbamoyl-5-[4-(6-fluoro-1H-benzimidazol-2-yl)-9H-carbazol-9-yl]phenylamino}cyclohexyl ester of 2(S)-aminopropionic acid] | < 1000 | < 1000 | 
NC(=O)c1ccc(-n2c3ccccc3c3c(-c4nc5ccc(F)cc5[nH]4)cccc32)cc1NC(CO)CO [Example 52, 4-[4-(6-fluoro-1H-benzimidazol-2-yl)-9H-carbazol-9-yl]-2-(2-hydroxy-1-hydroxymethylethylamino)benzamide] | < 1000 | < 1000 | 
Nc1noc2cc(-n3c4ccccc4c4c(-c5nc6ccc(F)cc6[nH]5)cccc43)ccc12 [Example 13, 6-[4-(6-fluoro-1H-benzimidazol-2-yl)-9H-carbazol-9-yl]-1,2-benzisoxazol-3-ylamine] | 1000 to 10000 | 1000 to 10000 | 
NC(=O)c1ccc(-n2c3ccccc3c3c(-c4cncc(OCc5ccccc5)c4)cccc32)cc1N[C@H]1CC[C@H](O)CC1 [Example 67, 4-{4-[5-(benzyloxy)pyridin-3-yl]-9H-carbazol-9-yl}-2-[(4-trans-hydroxycyclohexyl)amino]benzamide] | 1000 to 10000 | 1000 to 10000 | 
NC(=O)c1ccc(-n2c3ccccc3c3c(-c4nc5ccc(F)cc5[nH]4)cccc32)cc1NCc1ccco1 [Example 48, 4-[4-(6-fluoro-1H-benzimidazol-2-yl)-9H-carbazol-9-yl]-2-[(furan-2-ylmethyl)amino]benzamide] | 1000 to 10000 | < 1000 | 
COCCCNc1cc(-n2c3ccccc3c3c(-c4cnc5ccccc5c4)cccc32)ccc1C(N)=O [Example 33, 2-(3-methoxypropyl)amino-4-[4-(quinolin-3-yl)-9H-carbazol-9-yl]benzamide] | < 1000 | < 1000 | 
NCCCC[C@@H](N)C(=O)O[C@H]1CC[C@H](Nc2cc(-n3c4ccccc4c4c(-c5nc6ccc(F)cc6[nH]5)cccc43)ccc2C(N)=O)CC1 (stereo in doubt) [Example 36, trifluoroacetate of the 4-trans-{2-carbamoyl-5-[4(6-fluoro-1H-benzimidazol-2-yl)-9H-carbazol-9-yl]phenylamino}cyclohexyl ester of (S)-2,6-diaminohexanoic acid] | < 1000 | < 1000 | 
NC(=O)c1ccc(-n2c3ccccc3c3c(-c4nc5cc(F)ccc5[nH]4)cccc32)cc1N [Example 10, 2-amino-4-[4-(6-fluoro-1H-benzimidazol-2-yl)-9H-carbazol-9-yl]benzamide] | < 1000 | 1000 to 10000 | 
CCN(CC)CCNc1cc(-n2c3ccccc3c3c(-c4nc5ccc(F)cc5[nH]4)cccc32)ccc1C(N)=O [Example 3, 2-(2-diethylaminoethylamino)-4-[4-(6-fluoro-1H-benzimidazol-2-yl)-9H-carbazol-9-yl]benzamide] | < 1000 | < 1000 | 
NC(=O)c1ccc(-n2c3ccccc3c3c(-c4cnc5ccccc5c4)cccc32)cc1NCCC1(O)CCCC1 [Example 64] | < 1000 | < 1000 | 
NC(=O)c1ccc(-n2c3ccccc3c3c(-c4cnc5ccccc5c4)cccc32)cc1 [Example 30, 4-[4-(quinolin-3-yl)-9H-carbazol-9-yl]benzamide] | 1000 to 10000 | 1000 to 10000 | 
NC(=O)c1ccc(-n2c3ccccc3c3c(-c4cnc5ccccc5c4)cccc32)cc1N[C@H]1CC[C@H](O)CC1 [Example 2, 2-(4-trans-hydroxycyclohexylamino)-4-[(4-quinolin-3-yl)-9H-carbazol-9-yl]benzamide] | < 1000 | < 1000 | 
NC(=O)CCNc1cc(-n2c3ccccc3c3c(-c4cnc5ccccc5c4)cccc32)ccc1C(N)=O [Example 34, 2-(2-carbamoylethylamino)-4-[4-(quinolin-3-yl)-9H-carbazol-9-yl]benzamide] | < 1000 | < 1000 | 
NC(=O)c1ccc(-n2c3ccccc3c3c(-c4nc5ccncc5[nH]4)cccc32)cc1N[C@H]1CC[C@H](O)CC1 [Example 4, 2-(4-trans-hydroxycyclohexylamino)-4-[4-(3H-imidazo[4,5-c]pyridin-2-yl)-9H-carbazol-9-yl]benzamide] | < 1000 | < 1000 | 
CC(O)CNc1cc(-n2c3ccccc3c3c(-c4nc5ccc(F)cc5[nH]4)cccc32)ccc1C(N)=O (racemic) [Example 40, 4-[4-(6-fluoro-1H-benzimidazol-2-yl)-9H-carbazol-9-yl]-2-(2(R,S)-hydroxypropylamino)benzamide] | < 1000 | < 1000 | 
NC(=O)c1ccc(-n2c3ccccc3c3c(-c4nc5ccc(F)cc5[nH]4)cccc32)cc1NCCF [Example 62, 4-[4-(6-fluoro-1H-benzimidazol-2-yl)-9H-carbazol-9-yl]-2-(2-fluoroethylamino)benzamide] | < 1000 | < 1000 | 
CC(=O)O[C@H]1CC[C@H](Nc2cc(-n3c4ccccc4c4c(-c5nc6ccc(F)cc6[nH]5)cccc43)ccc2C(N)=O)CC1 [Example 5, acetic acid 4-{2-carbamoyl-5-[4-(6-fluoro-1H-benzimidazol-2-yl)-9H-carbazol-9-yl]phenylamino}-trans-cyclohexyl ester] | 1000 to 10000 | < 1000 | 
NC(=O)c1ccc(-n2c3ccccc3c3c(-c4cnc5ccccc5c4)cccc32)cc1NCC[N+]1([O-])CCCC1 [Example 45, 2-[2-(1-oxypyrrolidin-1-yl)ethylamino]-4-[4-(quinolin-3-yl)-9H-carbazol-9-yl]benzamide] | < 1000 | < 1000 | 
COC[C@H](C)Nc1cc(-n2c3ccccc3c3c(-c4nc5ccc(F)cc5[nH]4)cccc32)ccc1C(N)=O [Example 54] | < 1000 | < 1000 | 
NC(=O)c1ccc(-n2c3ccccc3c3c(-c4nc5ccc(F)cc5[nH]4)cccc32)cc1NCCCO [Example 8, 4-[4-(6-fluoro-1H-benzimidazol-2-yl)-9H-carbazol-9-yl]-2-(3-hydroxypropylamino)benzamide] | < 1000 | < 1000 | 
NC(=O)c1ccc(-n2c3ccccc3c3c(-c4nc5ccc(F)cc5[nH]4)cccc32)nc1 [Example 19, 6-[4-(6-fluoro-1H-benzimidazol-2-yl)carbazol-9-yl]nicotinamide] | 1000 to 10000 | 1000 to 10000 | 
NC(=O)c1ccc(-n2c3ccccc3c3c(-c4cnc(N)nc4)cccc32)cc1NCCCO [Example 56, 4-[4-(2-aminopyrimidin-5-yl)-9H-carbazol-9-yl]-2-[(3-hydroxypropyl)amino]benzamide hydrochloride] | < 1000 |  | 
